Experiment: Accumulation of topotecan in VCN-01-infected retinoblastoma
Assay type: in vivo, mouse
Description: Accumulation of topotecan in VCN-01-infected retinoblastoma. The Animal Experimental Ethics Committee at the University of Barcelona (animal protocol number 482/18) approved animal experimentation. Retinoblastoma cells in the eyes of athymic nude mice (Envigo, Barcelona, Spain), as previously described (Pascual-Pasto et al., 2016). After 14 days, VCN-01 (3×10^9 vp/eye) was inoculated. After another 14 days, s.c. osmotic pumps loaded with topotecan were implanted to achieve constant topotecan in plasma, as described previously (Pascual-Pasto et al., “Increased delivery of chemotherapy to the vitreous by inhibition of the blood-retinal barrier,” J Control Release 2017; 264:34-44), and collected tumor samples for analysis of topotecan.
Animal experiments were carried out following institutional and European guidelines (EU Directive 2010/63/EU) and the ARRIVE guidelines ([…]). Retinoblastoma cells (2×10^5) were inoculated into the posterior segment of the eye of six week old athymic nude mice using a dull 33G needle, as previously described (Giani et al., 1994). […] Samples were analyzed by high performance liquid chromatography (HLPC) as described previously ([…]).

CC[C@@]1(O)C(=O)OCc2c1cc1n(c2=O)Cc2cc3c(CN(C)C)c(O)ccc3nc2-1 [Topotecan, topotecan]
biodistribution of topotecan in intraocular tumors (concomitant treatment with VCN-01 (FIG. 21)): did not change | concentration at 6 h (mouse, in vivo, sc, 25 ug/h, osmotic pump, 25 μg/h, athymic nude mice, read-out: topotecan plasma level at steady state): ~100 ng/mL
